One data set concerns the target α-glucosidase. The settings on record: literature ref 12; read-out: α-glucosidase inhibition activity IC50; cited from earlier work.
Data set [1] deals with murine macrophage cell line J774. As to the kind of experiment: Cytotoxicity assay with J774 macrophages. The note with it: for IC50: Mus musculus.
The next data set has as its system zebrafish embryos. The note with it: reported in literature; cited from earlier work.
Data set [2] relates to replicating stage M. tuberculosis (Mtb). The experiment in a line: MIC against replicating Mtb. The data set is classed as cell-based, Mycobacterium tuberculosis. The note with it: for MIC: Mycobacterium tuberculosis.
The next data set relates to M. abscessus (Mab). As to the kind of experiment: M. abscessus (Mab) inhibition. It is filed as cell-based, Mycobacterium abscessus. The settings on record: Table 10; pure compounds.
In another data set the test system is C. albicans. The note with it: reported in literature; cited from earlier work.
The test system of a further data set is S. typhimurium. The note with it: reported in literature; cited from earlier work.
Another data set concerns S. pyogenes. The settings on record: reported in literature; cited from earlier work.
The test system of another data set is E. co/i. The note with it: reported in literature; cited from earlier work.
Another data set relates to S. aureus. The note with it: reported in literature; cited from earlier work.
The test system of a further data set is MRSA. The settings on record: literature ref 20; cited from earlier work.
In data set [3] the target is acetylcholinesterase (AchE) (Homo sapiens, UniProt P22303). The note with it: literature ref 13; read-out: IC50 against acetylcholinesterase (AchE); cited from earlier work.
Sequence of acetylcholinesterase (AchE) (P22303 32-614): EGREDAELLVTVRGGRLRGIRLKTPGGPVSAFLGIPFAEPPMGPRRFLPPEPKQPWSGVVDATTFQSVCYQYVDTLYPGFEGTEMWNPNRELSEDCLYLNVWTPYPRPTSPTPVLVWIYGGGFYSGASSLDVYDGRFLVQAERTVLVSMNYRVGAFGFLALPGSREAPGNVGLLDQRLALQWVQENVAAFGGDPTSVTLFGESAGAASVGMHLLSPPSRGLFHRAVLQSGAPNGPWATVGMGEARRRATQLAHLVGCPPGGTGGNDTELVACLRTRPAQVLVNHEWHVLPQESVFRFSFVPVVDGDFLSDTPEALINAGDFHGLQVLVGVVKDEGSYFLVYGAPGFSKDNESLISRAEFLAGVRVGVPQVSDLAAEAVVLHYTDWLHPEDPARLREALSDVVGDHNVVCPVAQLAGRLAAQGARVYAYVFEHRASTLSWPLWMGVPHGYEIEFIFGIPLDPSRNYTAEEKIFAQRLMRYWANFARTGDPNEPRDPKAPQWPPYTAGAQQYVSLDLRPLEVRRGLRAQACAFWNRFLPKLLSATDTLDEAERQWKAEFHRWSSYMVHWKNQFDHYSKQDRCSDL
Setting [4] is: Table 10, pure compounds, replicating Mtb, read-out: MIC (Mtb-rep).

SMILES strings stand for the structures. Converted amounts (≈) assume the structure as drawn. Like-named read-outs stand apart in the source and are kept apart here.

For the compound `C[C@@H]1CC(=O)CCCCCc2cc(O)cc(O)c2C(=O)O1` [(3R)-5-oxo-de-O-methyllasiodiplodin], at α-glucosidase, the half-inhibitory concentration (IC50) is 54.6 µM.

For the compound `C[C@@H]1CCC[C@H](O)CCCc2cc(O)cc(O)c2C(=O)O1` [(3R,7R)-7-hydroxy-de-O-methyllasiodiplodin], the half-maximal inhibitory concentration (IC50) at α-glucosidase is 25.8 µM.

In the case of `CC[C@H](C)/C=C(C)/C=C/C(=O)Cc1cc(O)c(C)c(O)c1C=O` [EtOAc-D, 2,4-dihyroxy-6-(5,7-dimethyl-2-oxo-trans-3-trans-5-nonadienyl)-3-methylbenzaldehyde], in data set [1] (J774, read-out: IC50 (J774)), the IC50 was about 200 µg/mL (≈ 632 µM). In the data set with zebrafish embryos, the “effect on exposed zebrafish embryos” value was “severely impaired heart morphology and curved trunk”. For the same compound, the minimum inhibitory concentration (MIC) in data set [2] (read-out: MIC (Mtb-rep)) was about 50 µg/mL (≈ 158 µM).

Turning to `COc1cc2c(c(O)c1C)COC2=O` [EtOAc-F-8-3, 4-hydroxy-6-methoxy-5-methyl-1(3H)-isobenzofuranone], the M. abscessus in the data set on M. abscessus (Mab) was 200 µg/mL. For the same compound, in [2] (setting [4]), the MIC turned out to be 200 µg/mL (≈ 1030 µM).

In the data set on M. abscessus (Mab), `C/C=C(/C(=O)O)N1C(=O)C=C(C)C1=O` [EtOAc-G-4, pencolide] gave a M. abscessus of 100 µg/mL. For the same compound, the “inhibition of C. albicans” value with C. albicans was “inhibition”. Also, the “activity against S. typhimurium” value in the data set on S. typhimurium was “inhibition”. In addition, in the data set with S. pyogenes, the “activity against S. pyogenes” value is reported as “inhibition”. For the same compound, the “inhibition of E. co/i” value in the data set with E. co/i is “inhibition”. Moreover, the MIC in [2] (setting [4]) was 50 µg/mL (≈ 256 µM). The “inhibition of S. aureus” value in the data set with S. aureus is listed as “inhibition”.

Consider `COc1cc(CC(=O)CO)c(C=O)c(O)c1C` [EtOAc-M-6-3], for which the M. abscessus in the data set with M. abscessus (Mab) is 100 µg/mL. Also, in [2] (setting [4]), the MIC is 50 µg/mL (≈ 210 µM).

For `CC[C@H](C)/C=C(C)/C=C/C1=CC2=C(Cl)C(=O)[C@](C)(OC(C)=O)C(=O)C2=CN1CCO` [EtOAc-O-7, Isochromophilone VI], the 50% inhibitory concentration (IC50) in data set [1] (J774) is 200 µg/mL (≈ 461 µM); in data set [1] (J774, read-out: IC50 (J774)), about 200 µg/mL (≈ 461 µM). Further, the “cytotoxicity (in words)” value in data set [1] (conclusion b210, J774) is reported as “low cytotoxicity”. Also, the “activity against S. typhimurium” value with S. typhimurium was “bioactivity”. For the same compound, the “activity against S. pyogenes” value in the data set with S. pyogenes is recorded as “bioactivity”. Besides, the “selectivity index (SI)” value in data set [2] (IC50 (J774) over MIC (Mtb)) is 10.78. Further, the minimum inhibitory concentration (MIC) in [2] (setting [4]) is 18.6 µg/mL (≈ 42.9 µM); in data set [2] (text b208, FIG. 11, replicating Mtb, read-out: MIC) it was 18 µg/mL (≈ 41.5 µM). Besides, the “bioactivity against replicating Mtb (in words)” value in [2] (conclusion b210) is “promising bioactivity”.

As to `CCC(C)/C=C(C)/C=C/C1=CC2=C(Cl)C(=O)C(C)(OC(C)=O)C(=O)C2=CN1CCCC(=O)O` (stereo not drawn) [Isochromophione IX, isochromophilone IX], in the data set on MRSA, the “MIC, inhibition against MRSA” value was 50 µg/mL (≈ 105 µM).

Consider `COc1ccc(-c2cc3c(c(=O)o2)C[C@]2(O)[C@@]4(C)CCC(=O)C(C)(C)[C@]4(O)CC[C@@]2(C)O3)cc1` [terreulactone C], for which, in data set [3], the IC50 is 0.028 µM.

For orientation: IC50 means the concentration needed to halve the response being measured. As usually defined, the MIC is the least concentration at which growth counts as inhibited.

The values above are taken from patent US11986459B2, “Methods for the treatment of Mycobacterium infections” (University of South Florida, priority 2020, dated 2024).
